From patent publication US4180672A, “2-Organothio-2-cyclopentenones, organothio-cyclopentanes derived therefrom” (Teijin Limited, priority 1976, dated 1979) come the findings set out here.

Where two headings read alike, the source gives them in different places.

For data set [1], the system named is formation of ulcer in rats induced by indomethacin. The experiment in a line: inhibiting action on formation of ulcer in rats induced by indomethacin (peroral). Type of data set: in vivo, rats (Sprague Dawley). As to conditions: for Ulcer formation (ulcer coefficient) Average value ± S.E.M.: 7 rats. As to the method: By the method of Y. H. Lee et al. [Arch. Int. Pharmacodyn. Ther., 192, 370 (1971)], the inhibiting action of dl-11-deoxy-15-methyl-7-thia-PGE1 methyl ester (a compound of formula II) on the formation of ulcer in rats induced by indomethacin, a typical non-steroid anti-inflammatory agent, was evaluated.
Male rats (Sprague Dawley species; body weight 300 g) were used in the experiment. These rats had been caused to fast for 24 hours in separate cages before the initiation of the experiment. Indomethacin was orally administered to these rats, and 6 hours later, they were killed. Formation of ulcer in the fundus part was examined by measuring the area of the ulcer-forming part under microscope. The dl-11-deoxy-15-methyl-7-thia-PGE1 methyl ester was orally administered at the end of 30 minutes and 3 hours, respectively, after the administration of indomethacin. The ulcer formation inhibiting rate of the dl-11-deoxy-15-methyl-7-thia-PGE1 methyl ester against a predetermined dose of indomethacin was determined.
The indomethacin was administered as a 0.5 ml aqueous suspension (containing two drops of a Tween-type nonionic surfactant per 14 ml of water). The dl-11-deoxy-15-methyl-7-thia-PGE1 methyl ester was given in the form of a solution in a phosphate buffer containing 0.9% of sodium chloride.
In the same way as in Referential Example 1, the compounds shown in Table 2 were examined for their inhibiting action on ulcer formation.

A short description of data set [2]: acute toxicity (iv) in mice. Particulars: mouse, in vivo.

Regarding `CCCCCCCS[C@H]1CCC(O)[C@@H]1SCCCCCC(=O)OC` (some centres unmarked) [No. 171, methyl 7,13-dithia-9-hydroxyprostanoate], the “Inhibiting rate (ulcer formation)” value was determined as 12% in data set [1] (dose 0.4 mg/kg, po) and 75% in data set [1] (dose 5.0 mg/kg, po).
As usually defined, the ED50 is the midpoint of the dose-response relation. Take `CCCCCC(C)(O)/C=C/C1CCC(=O)C1SCCCCCC(=O)OC` (racemic) [No. 101, dl-11-deoxy-15-methyl-7-thia-PGE1 methyl ester]: in data set [1] (Rattus norvegicus, po, peroral, indomethacin 20 mg/kg peroral, rats, read-out: ED50 (inhibition of ulcer formation induced by indomethacin)), the 50% effective dose (ED50) was 0.3 mg/kg. The “Inhibiting rate (ulcer formation)” value in data set [1] (dose 0.1 mg/kg, po) was 16%; in data set [1] (dose 0.4 mg/kg, po) it was 66%; in data set [1] (dose 1.0 mg/kg, po), 99%. The “Ulcer formation (ulcer coefficient) Average value ± S.E.M.” value is on record as 57.5 ± 14.1 in data set [1] (dose 0.1 mg/kg, po, indomethacin 20 mg/kg peroral); 23.3 ± 12.4 in data set [1] (dose 0.4 mg/kg, po, indomethacin 20 mg/kg peroral, *** p 0.001); 0.6 ± 0.05 in data set [1] (dose 1.0 mg/kg, po, indomethacin 20 mg/kg peroral, *** p 0.001). Besides, the “inhibition of ulcer formation (in words)” value in data set [1] (rats, indomethacin-induced, peroral) is “markedly inhibited ulcer formation”.
As a reminder, the LD50 is the dose expected to kill half of the subjects tested. As to `CCCCC[C@H](O)/C=C/[C@@H]1[C@@H](C/C=C\CCCC(=O)O)[C@@H](O)C[C@H]1O` [PGF2α, reference compound], the median lethal dose (LD50) in data set [2] (iv, female, iv, mice, read-out: acute toxicity LD50) amounted to 56 mg/kg; in data set [2] (male, iv, mice, read-out: acute toxicity LD50), 60 mg/kg.
On to `CCCCCC(C)(O)CS[C@H]1C(=O)CC[C@@H]1SCCCCCC(=O)O` (some centres unmarked) [No. 154, 7,13-dithia-15-hydroxy-15-methyl-11-oxo-prostanoic acid], for which, in data set [2] (acute toxicity (iv) in mice, read-out: LD50), the median lethal dose (LD50) is 350 mg/kg. The “Inhibiting rate (ulcer formation)” value in data set [1] (dose 2.0 mg/kg, po) amounted to 80%.
For `CCCCC[C@H](O)/C=C/[C@@H]1CCC(=O)[C@H]1SCCCCCC(=O)OC` [No. 89, 11-Deoxy-7-thia-8,12-diepiprostaglandin E1 methyl ester], the LD50 in data set [2] (iv) stood at 20 mg/kg. In addition, the “Inhibiting rate (ulcer formation)” value in data set [1] (dose 0.4 mg/kg, po) was 57%; in data set [1] (dose 1.0 mg/kg, po) it was 65%.
As for `COC(=O)CCCCCSC1CCC(O)C1SCCCc1ccccc1` (centres unmarked) [No. 190, methyl 7,13-dithia-11-hydroxy-16-phenyl-17,18,19,20-tetranor-prostanoate], the “Inhibiting rate (ulcer formation)” value in data set [1] (dose 0.4 mg/kg, po) came to 46%; in data set [1] (dose 1.0 mg/kg, po), 57%.
For `CCCCCCCS[C@H]1C(O)CC[C@@H]1SCCCCCC(=O)OC` (some centres unmarked) [No. 159, methyl 7,13-dithia-11-hydroxyprostanoate], the “Inhibiting rate (ulcer formation)” value in data set [1] (dose 0.4 mg/kg, po) is reported as 15%; in data set [1] (dose 2.0 mg/kg, po), 78%.
For `CCCCCC(C)(O)CS[C@H]1CCC(O)[C@@H]1SCCCCCC(=O)OC` (some centres unmarked) [No. 182, methyl 7,13-dithia-9,15-dihydroxy-15-methylprostanoate], the “Inhibiting rate (ulcer formation)” value in data set [1] (dose 0.4 mg/kg, po) amounted to 25%; in data set [1] (dose 2.0 mg/kg, po) it was 80%.
